Laboratory results: patent publication US12324827B2, “Combination therapy for the treatment of migraines” (The University of Chicago, priority 2019, dated 2025)

Experiments:
[1] = Blood glucose after nose-to-brain (N2B) delivery of IGF-1; format: in vivo, Wistar rats; conditions: 1.0-hour after N2B IGF-1 150 μg, n=4/group
[2] = system: cortical spreading depression; test: Number of cortical spreading depressions evoked over 90 minutes; format: in vivo, rat; conditions: CSD stimulus every nine minutes for 90 minutes, an hour after intravenous injection, n=3
Excerpt: (§1) Animals are stabilized for an hour under anesthesia (1.5% isoflurane in oxygen) after head sutures are removed, eyes coated with Artificial Tears and animals made ready for initiation and recording of CSD under deeper (5%) isoflurane in oxygen, which is then lowered back to 1.5% isoflurane in oxygen during CSD recordings. CSD is initiated as described above one to four hours after antibody infusion. All animals receive nine KCl injections. Then, isoflurane is raised to 5% and animals anesthetized with intraperitoneal ketamine and Xylazine followed quickly by euthanasia via intra-cardiac perfusion with 0.1 mL heparin (1,000 units/ml), then 250 ml of normal saline and finally 250 ml 4% paraformaldehyde in 0.2 M phosphate buffer. Brains plus upper cervical cord and trigeminal ganglia are harvested for measurement of c-fos immunostaining in the trigeminocervical complex and CGRP and oxidative stress (malondialdehyde) levels in the trigeminal ganglion ipsilateral to CSD. Animal groups and endpoints are defined below.
First, the inventors confirmed that there was no significant difference in the number of evoked CSDs between groups (FIG. 16). Sham nasal delivery was, as reported (i.e., 50 μl succinate buffer delivered as 5 μl aliquots to alternating nostrils every two minutes) while under isoflurane inhalational anesthesia (Won and Kraig, 2020). […]

[3] = system: trigeminal ganglion malondialdehyde (MDA); test: Trigeminal ganglion V1 malondialdehyde immunostaining after recurrent CSD, nasal IGF-1 with or without intravenous anti-CGRP antibody (Example 5); format: in vivo, rat
Description: (§2) Migraine will be modeled using recurrent CSD (Grinberg et al., 2019; Won and Kraig 2019a,b; Won and Kraig, 2020). Briefly, the day before recurrent CSD, animals are anesthetized with inhalational isoflurane in oxygen (2-5%) and treated with intranasal IGF-1 (150 μg in 50 μl succinate buffer).
(§3) The next day (i.e., 20-24 hours later) animals are again be anesthetized as above with inhalational isoflurane and the left femoral vein cannulated for antibody infusion. Select groups of animals (see below) are treated with intravenous infusion either 1 mg/kg anti-CGRP (ab81887) or isotype IgG2a control in 0.5-0.6 ml normal saline. After infusions, the femoral incision is closed with wound clips.
Animals are stabilized for an hour under anesthesia (1.5% isoflurane in oxygen) after head sutures are removed, eyes coated with Artificial Tears and animals made ready for initiation and recording of CSD under deeper (5%) isoflurane in oxygen, which is then lowered back to 1.5% isoflurane in oxygen during CSD recordings. CSD is initiated as described above one to four hours after antibody infusion. All animals receive nine KCl injections. […]
(§4) 2. […] All animals for nasal delivery of IGF-1 plus intravenous treatment (i.e., one ml saline or anti-CGRP antibody) followed by 90 minutes of evoked CSDs) were analyzed for trigeminal cervical complex c-fos immunostaining and trigeminal ganglion malondialdehyde immunostaining as previously described (Won and Kraig, 2020).
The inventors used a verified method of quantifying immunostaining log-ratios (experimental/sham) as a further means to reduce potential run-to-run variations in immunostaining for malondialdehyde, CGRP and c-fos positive cells (Won and Kraig, 2020). Images of malondialdehyde and CGRP were analyzed in blinded pairs so that they could be converted once decoded to ratios of experimental/sham image integrated optical intensity, a sensitive metric that not only accounts for the area but also the pixel intensity of related image fluorescence.

[4] = system: trigeminocervical complex c-fos; test: Trigeminocervical c-fos immunostaining after recurrent CSD, nasal IGF-1 with or without intravenous anti-CGRP antibody (Example 5); format: in vivo, rat
Description: as §2
Anesthetized animals are then transferred to a standard stereotaxic head holder under 2-5% isoflurane inhalational anesthesia. Eyes are coated with Artificial Tears and head shaved, cleansed with Betadine, and 0.1 mL of 0.25% Bupivacaine is injected subcutaneously to either side of what will be a left of midline head incision made five minutes later. The underlying skull is scraped free of soft tissue and hemostasis achieved with bone wax. Two 1-2 mm craniotomies are drilled with a Dremel tool at +3 mm anterior to bregma and two mm lateral to the midline (for 0.5M KCl 10-30 nL pressure injections used to initiate CSD. A second craniotomy is placed six mm caudal to bregma and 4.5 mm lateral to the midline (for recording CSD. The surgery area is wiped with Betadine and incision closed with three wound clips. Animals are allowed to awaken and then returned to overnight standard Animal Facility Housing.
as §3
as §1, with “Brains plus upper cervical cord and trigeminal ganglia are harvested for measurement of c-fos immunostaining in the trigeminocervical complex and CGRP and oxidative stress (malondialdehyde) levels in the trigeminal ganglion ipsilateral to CSD. Animal groups and endpoints are defined below.” left out
as §4, with “2020). […]” for “2020).”

## IGF-1: human recombinant IGF-1 (#191-G1; R&D Systems), 150 μg in 50 μL sodium succinate buffer, delivered nose-to-brain
[1]
  blood glucose level: 139 ± 24 mg/dL
[2]
  number of CSDs evoked: 7±0.41
[3]; nasal IGF-1 alone, as previously reported (Won and Kraig, 2020), n=5
  ln ratio of trigeminal ganglion MDA immunostaining: −1.76±0.29
[3]; nasal IGF-1 plus intravenous saline, n=3
  ln ratio of trigeminal ganglion MDA immunostaining: −1.75±0.56
[3]; nasal IGF-1 with or without intravenous saline / nasal succinate, n=8
  ln ratio of trigeminal ganglion MDA immunostaining, combined groups: −1.76±0.39
[4]; counts from −4.5 and 6.0 mm caudal to the obex
  reduction in trigeminocervical c-fos activation from recurrent CSD: 45%
[4]; nasal IGF-1 alone, original Won and Kraig 2020 data, n=5
  ln ratio (IGF-1/sham) of trigeminocervical c-fos: −0.56±0.08
[4]; nasal IGF-1 plus intravenous saline a day later, new data, n=3
  ln ratio (IGF-1/sham) of trigeminocervical c-fos: −0.548±0.16
[4]; nasal IGF-1 with or without subsequent intravenous saline, n=10
  ln ratio of trigeminocervical c-fos, combined groups: −0.547±0.11
